Source: patent US9162979B2, “1,5-Diary1-2-alkylpyrrole-3-substituted nitro esters, selective COX-2 inhibitors and nitric oxide donors” (ROTTAPHARM BIOTECH S.R.L., priority 2010, dated 2015)

What was measured:
[1] = tested on: isolated rings of thoracic aorta; assay: Evaluation of release of NO: vasorelaxing activity on endothelium-denuded aortic rings contracted with KCl; set-up: species or system rat; key to NO release properties Emax (maximum vasorelaxing effect) / NO release properties pIC50 (vasorelaxing potency): S.E: Scarcely Effective: it is not possible to detect NO release comparable to the other compounds mentioned here; conditions: for IC50 / Emax: Rattus norvegicus; for IC50 / NO release properties pIC50 (vasorelaxing potency): concentration reducing contractile tone induced by 20 mM KCl by half; for IC50: read-out: NO release properties pIC50 (vasorelaxing potency) (converted); for Emax / NO release properties Emax (maximum vasorelaxing effect): relative to contractile tone induced by 20 mM KCl, 1 nM-10 μM; for Emax: read-out: NO release properties Emax (maximum vasorelaxing effect)
Method: The activity of the compounds was evaluated on isolated rings of thoracic aorta of normotensive male Wistar rats (250-350 g). After light anaesthesia with ether, the rats were sacrificed by cervical dislocation and exsanguination. The aortas were immediately excised, extraneous tissues were removed and the endothelial layer was removed by gently rubbing the surface with a hypodermic needle. Rings of aorta with a width of 5 mm were suspended, with a preload of 2 g, in 20-ml organ baths, containing a solution of “Tyrode” (composition of the saline solution in mM: NaCl 136.8; KCl 2.95; CaCl2 1.80; MgSO4 1.05; NaH2PO4 0.41; NaHCO3 11.9; glucose 5.5), thermostatically controlled at 37° C. and kept in an atmosphere of O2 (95%) and CO2 (5%). […] were recorded by means of an isometric transducer (FTO3 Erba), connected to a microdynamometer (Buxco Electronics).
60 minutes after preparation, removal of the endothelium was confirmed by acetylcholine (ACH) (10 μM) treatment of the vascular rings pre-contracted with KCl (20 mM). Relaxation of less than 10% of the contraction induced by KCl was considered as representative of acceptable removal of the endothelial layer, whereas organs displaying relaxation ≧10% were discarded. 40 minutes after confirmation of complete removal of the endothelium, the aortas were contracted by treatment with a single dose of KCl (20 mM) and after the contraction reached a stable plateau, increasing cumulative concentrations (with progressive increments of 3 times) of the test compounds (1 nM-10 μM) were added. It was found from preliminary experiments that the contraction induced by KCl (20 mM) remained stable in a tonic state for at least 40 minutes. The same experiments were performed in the presence of a well-known inhibitor of guanylate cyclase: ODQ 1 μM, which was incubated in aorta preparations after confirmation of removal of the endothelium.
Analysis of the results. The vasorelaxing activity was evaluated as a percentage (%) relative to the contractile tone induced by 20 mM KCl. The pharmacodynamic efficacy parameter (Emax) corresponds to the maximum vasorelaxing effect induced by the molecule tested, expressed as percentage relative to the contractile tone induced by 20 mM KCl. When the limit concentration of 10 μM (the highest concentration administered) of the test compounds has not reached the maximum effect, the efficacy parameter (Emax) corresponds to the vasorelaxing effect induced by the limit concentration (expressed as percentage relative to the contractile tone induced by 20 mM KCl). The pharmacodynamic parameter of potency of the compounds was expressed as pIC50 calculated as the negative logarithm of the molar concentration of test compound that reduces the contractile tone induced by 20 mM KCl by half. […] The parameters of efficacy and potency were expressed as mean±standard error, for 5-10 experiments. The experimental data were analysed by the program GraphPad Prism 3.0.

[2] = target: COX-2 (Mus musculus (Mouse), UniProt Q05769); assay: Evaluation of COX-2 activity: PGE2 production in LPS-stimulated J774 cells; type: cell-based, murine; conditions: J774 cells stimulated 24 hours with LPS 10 μg/mL; PGE2 by radio-immunological assay; read-out: Cyclooxygenase inhibition COX-2 IC50
COX-2, sequence (Q05769 18-604): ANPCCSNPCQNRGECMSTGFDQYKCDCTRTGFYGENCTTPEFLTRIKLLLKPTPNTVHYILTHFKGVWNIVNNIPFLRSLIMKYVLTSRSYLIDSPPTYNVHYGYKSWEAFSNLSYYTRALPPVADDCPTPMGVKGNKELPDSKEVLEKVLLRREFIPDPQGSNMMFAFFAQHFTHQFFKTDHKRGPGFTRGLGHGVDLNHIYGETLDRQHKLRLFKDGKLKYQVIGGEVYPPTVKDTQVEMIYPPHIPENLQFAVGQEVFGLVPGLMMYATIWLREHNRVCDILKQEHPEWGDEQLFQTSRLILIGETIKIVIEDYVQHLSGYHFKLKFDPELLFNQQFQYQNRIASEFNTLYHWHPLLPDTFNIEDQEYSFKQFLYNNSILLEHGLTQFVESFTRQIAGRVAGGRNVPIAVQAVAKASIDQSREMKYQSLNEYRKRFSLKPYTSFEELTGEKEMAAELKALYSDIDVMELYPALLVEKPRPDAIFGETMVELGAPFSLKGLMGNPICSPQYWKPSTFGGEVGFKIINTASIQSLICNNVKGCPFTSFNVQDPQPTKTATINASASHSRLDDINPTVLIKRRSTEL
Method: The murine monocyte/macrophage cell line J774 is grown in Dulbecco's modified Eagle's medium (DMEM), enriched with glutamine (2 mM), HEPES (25 mM), penicillin (100 u/mL), streptomycin (100 μg/mL), 10% of fetal bovine serum (FBS) and 1.2% of sodium pyruvate. […] Just before the experiments, the culture medium is replaced with fresh medium without FBS to avoid interference during the radio-immunological phase and the cells are stimulated as described below.
The supernatants are collected for evaluating, by means of radio-immunological assays, the amount of PGE2 produced.
In each group of experiments, wells were used in triplicate for the different treatment conditions. […] The data were evaluated using the sigmoidal dose-response equation (variable slope) (GraphPad software). IC50 and the 95% precision intervals were calculated with the program GraphPad Instat (GraphPad software).

Structure (SMILES)	Emax [1]	IC50 [2]	further results
Cc1c(CC(=O)OCC(CO[N+](=O)[O-])O[N+](=O)[O-])cc(-c2ccc(S(C)(=O)=O)cc2)n1-c1ccccc1 (racemic) [Example 15, (R,S)-2,3-bis(Nitrooxy)propyl-2-[1-phenyl-2-methyl-5-(4-methylsulphonylphenyl)-1H-pyrrol-3-yl]acetate]	57 ± 6%	–	IC50 [1]: 1120 nM
Cc1c(CC(=O)NC(CCO)C(=O)O)cc(-c2ccc(S(C)(=O)=O)cc2)n1-c1ccc(F)cc1 (racemic) [Example 32-II, (R,S)-4-(Hydroxy)-2-[[1-(4-fluorophenyl)-2-methyl-5-(4-methylsulphonylphenyl)-1H-pyrrol-3-yl]acetamido]butanoic Acid]	–	86 nM	–
Cc1c(CC(=O)NC(CCO[N+](=O)[O-])C(=O)O)cc(-c2ccc(S(C)(=O)=O)cc2)n1-c1cccc(F)c1 (racemic) [Example 33, (R,S)-4-(Nitroxy)-2-[[1-(3-fluorophenyl)-2-methyl-5-(4-methylsulphonylphenyl)-1H-pyrrol-3-yl]acetamido]butanoic Acid]	23 ± 2%	–	–
Cc1c(CC(=O)NC(CO[N+](=O)[O-])C(=O)O)cc(-c2ccc(S(C)(=O)=O)cc2)n1-c1ccc(F)cc1 (stereo in doubt) [Example 29, (S)-3-(Nitroxy)-2-[[1-(4-fluorophenyl)-2-methyl-5-(4-methylsulphonylphenyl)-1H-pyrrol-3-yl]acetamido]propanoic Acid]	–	310 nM	NO release properties pIC50 (vasorelaxing potency) [1]: S.E; NO release properties Emax (maximum vasorelaxing effect) [1]: S.E
Cc1c(CC(=O)NC(CO)C(=O)O)cc(-c2ccc(S(C)(=O)=O)cc2)n1-c1ccc(F)cc1 (stereo in doubt) [Example 29-II, (S)-3-(Hydroxy)-2-[[1-(4-fluorophenyl)-2-methyl-5-(4-methylsulphonylphenyl)-1H-pyrrol-3-yl]acetamido]propanoic Acid]	–	160 nM	–
Cc1c(CC(=O)NC(CO[N+](=O)[O-])C(=O)O)cc(-c2ccc(S(C)(=O)=O)cc2)n1-c1cccc(F)c1 (stereo in doubt) [Example 30, (S)-3-(Nitroxy)-2-[1-(3-fluorophenyl)-2-methyl-5-(4-methylsulphonylphenyl)-1H-pyrrol-3-yl]acetamido]propanoic Acid]	–	140 nM	NO release properties pIC50 (vasorelaxing potency) [1]: S.E; NO release properties Emax (maximum vasorelaxing effect) [1]: S.E
Cc1c(CC(=O)NC(CO)C(=O)O)cc(-c2ccc(S(C)(=O)=O)cc2)n1-c1cccc(F)c1 (stereo in doubt) [Example 30-II, (S)-3-(Hydroxy)-2-[1-(3-fluorophenyl)-2-methyl-5-(4-methylsulphonylphenyl)-1H-pyrrol-3-yl]acetamido]propanoic Acid]	–	57 nM	–
Cc1c(CC(=O)OCCO[N+](=O)[O-])cc(-c2ccc(S(C)(=O)=O)cc2)n1-c1ccccc1 [Example 1, 2-(Nitrooxy)ethyl-2-[1-phenyl-2-methyl-5-(4-methylsulphonylphenyl)-1H-pyrrol-3-yl]acetate]	66 ± 3%	43 nM	IC50 [1]: 1410 nM
Cc1c(CC(=O)OCCO)cc(-c2ccc(S(C)(=O)=O)cc2)n1-c1ccccc1 [Example 1-II]	–	27 nM	–
CSc1ccc(-n2c(-c3ccc(S(C)(=O)=O)cc3)cc(CC(=O)OCCO[N+](=O)[O-])c2C)cc1 [Example 5, 2-(Nitroxy)ethyl-[1-(4-methylthiophenyl)-2-methyl-5-(4-methylsulphonylphenyl)-1H-pyrrol-3-yl]-acetate]	64.9 ± 1.4%	–	IC50 [1]: 457 nM
CSc1ccc(-n2c(-c3ccc(S(C)(=O)=O)cc3)cc(CC(=O)OCCO)c2C)cc1 [Example 5-II, 2-Hydroxyethyl-[1-(4-methylthiophenyl)-2-methyl-5-(4-methylsulphonylphenyl)-1H-pyrrol-3-yl]-acetate]	–	85 nM	–
Cc1c(CC(=O)OCCCO)cc(-c2ccc(S(C)(=O)=O)cc2)n1-c1cccc(F)c1 [Example 8-II, 3-Hydroxypropyl-[1-(3-fluorophenyl)-2-methyl-5-(4-methylsulphonylphenyl)-1H-pyrrol-3-yl]-acetate]	–	23 nM	–
COc1ccc(-n2c(-c3ccc(S(C)(=O)=O)cc3)cc(CC(=O)OCCCO)c2C)cc1 [Example 9-II, 3-Hydroxypropyl-[1-(4-methoxyphenyl)-2-methyl-5-(4-methylsulphonylphenyl)-1H-pyrrol-3-yl]-acetate]	–	700 nM	–
CSc1ccc(-n2c(-c3ccc(S(C)(=O)=O)cc3)cc(CC(=O)OCCCO[N+](=O)[O-])c2C)cc1 [Example 10, 3-(Nitroxy)propyl-[1-(4-methylthiophenyl)-2-methyl-5-(4-methylsulphonylphenyl)-1H-pyrrol-3-yl]-acetate]	41 ± 8%	27 nM	–
CSc1ccc(-n2c(-c3ccc(S(C)(=O)=O)cc3)cc(CC(=O)OCCCO)c2C)cc1 [Example 10-II, 3-(Hydroxy)propyl-[1-(4-methylthiophenyl)-2-methyl-5-(4-methylsulphonylphenyl)-1H-pyrrol-3-yl]-acetate]	–	260 nM	–
Cc1c(CC(=O)OCCCCO)cc(-c2ccc(S(C)(=O)=O)cc2)n1-c1cccc(F)c1 [Example 12-II, 4-(hydroxy)butyl-[1-(3-fluorophenyl)-2-methyl-5-(4-methylsulphonylphenyl)-1H-pyrrol-3-yl]-acetate]	–	110 nM	–
CSc1ccc(-n2c(-c3ccc(S(C)(=O)=O)cc3)cc(CC(=O)OCCCCO[N+](=O)[O-])c2C)cc1 [Example 14, 4-(Nitrooxy)butyl-2-[1-(4-thiomethylphenyl)-2-methyl-5-(4-methylsulphonylphenyl)-1H-pyrrol-3-yl]acetate]	55 ± 15%	220 nM	vasorelaxing effect in the presence of ODQ ([1]; ODQ 1 μM, guanylate cyclase inhibitor): not fully antagonized by ODQ; IC50 [1]: 5010 nM
CSc1ccc(-n2c(-c3ccc(S(C)(=O)=O)cc3)cc(CC(=O)OCCCCO)c2C)cc1 [Example 14-II, 4-(Hydroxy)butyl-2-[1-(4-thiomethylphenyl)-2-methyl-5-(4-methylsulphonylphenyl)-1H-pyrrol-3-yl]acetate]	–	55 nM	–
Cc1c(CC(=O)NCCO)cc(-c2ccc(S(C)(=O)=O)cc2)n1-c1cccc(F)c1 [Example 24-II, N-[(2-hydroxy)ethyl]-2-[1-(3-fluorophenyl)-2-methyl-5-(4-methylsulphonylphenyl)-1H-pyrrol-3-yl]acetamide]	–	290 nM	–
Cc1c(CCOCCO[N+](=O)[O-])cc(-c2ccc(S(C)(=O)=O)cc2)n1-c1ccccc1 [Example 36, 2-[2-[1-Phenyl-2-methyl-5-(4-methylsulphonylphenyl)-1H-pyrrol-3-yl]ethoxy]ethyl Nitrate]	65%	17 nM	IC50 [1]: 6030 nM
Cc1c(CCOCCCO[N+](=O)[O-])cc(-c2ccc(S(C)(=O)=O)cc2)n1-c1ccccc1 [Example 40, 3-[2-[2-(1-Phenyl-2-methyl-5-(4-methylsulphonylphenyl)-1H-pyrrol-3-yl)ethoxy]propyl Nitrate]	48.2 ± 0.5%	15 nM	–
Cc1c(CCOCCCO)cc(-c2ccc(S(C)(=O)=O)cc2)n1-c1cccc(F)c1 [Example 42-II, 3-[2-(1-(3-Fluorophenyl)-2-methyl-5-(4-methylsulphonylphenyl)-1H-pyrrol-3-yl)ethoxy]propanol]	–	1500 nM	–
